Here are results for two compounds from patent publication US5230998A, “Method for the prescreening of drugs targeted to the V3 hypervariable loop of the HIV-1 envelope glycoprotein gp 120” (priority 1991, dated 1993).

Converted amounts (≈) assume the structure as drawn. “Also recorded” adds a separate entry of the source.

For series [1], the target named is T1, V3 hypervariable loop peptide (303-338) (Human immunodeficiency virus type 1 BH10, UniProt P03375).
T1 construct: cut from Env gp160
The experiment in a line: Attachment of ATA determined by anti-ATA antibodies (double antibody RIA). The format is binding, HIV-1 BH 10. The settings on record: FIG. 1C, FIG. 2. How it is done: (§1) Antibodies to ATA were detected by double antibody RIA using wells coated with an ATA-ovalbumin conjugate. This conjugate was prepared in the same way as described for the ATA-BSA conjugate. Dilution endpoints of anti-ATA antibodies, determined as described by Ritchie, D. G., Nickerson, J. M., and Fuller, G. M. (1983), "Two Simple Programs for the Analysis of Data from Enzyme-linked Immunosorbent Assays (ELISA) on a Programmable Desk-top Calculator," Methods in Enzymology, 92, 577-588) of the two antisera were: 1:2,700 and 1:150,000, respectively. The second antiserum was used for subsequent RIA tests.
(§2) ATA was also added to a control peptide, (518-542), and to wells coated with gelatin only. After incubation for 4 hours at 20° C., excess ATA was removed, the wells were washed with TS and attached ATA was determined by double-antibody RIA using serial dilutions of the anti-ATA antiserum. Similar tests were carried out with serum from the same rabbit before immunization with the ATA-BSA conjugate; the corresponding results (100-450 cpm) were subtracted from cpm corresponding to RIA results obtained with the anti-ATA antiserum. For additional assays aimed at determining the binding of ATA to synthetic peptides from gp120 and gp41 of HIV-1 BH 10 and to V3 hypervariable loop peptides from 20 additional HIV-1 isolates, anti-ATA antiserum was used at a final dilution of 1:800.

Series [2] deals with T2, gp120 (Human immunodeficiency virus type 1 BH10, UniProt P03375).
T2 construct: cut from Env gp160
The description is as above. The format is binding, HIV-1 BH 10. The settings on record: FIG. 2; listed as ATA. How it is done: as §1, §2

Series [3] has as its target peptide (492-518) (Human immunodeficiency virus type 1 BH10, UniProt P03375). Described as above. Conditions: FIG. 1C. It is filed as binding, HIV-1 BH 10. How it is done: as §1, §2
Series [4] concerns the target T3, BH 10 peptide (Human immunodeficiency virus type 1 BH10, UniProt P03375).
T3 construct: cut from Env gp160
Nature of the series: Attachment of ATA to V3 hypervariable loop peptides of distinct HIV-1 isolates (FIG. 4B). The format is binding, HIV-1 BH 10. How it is done:
FIG. 4 comprises bar graphs depicting the interaction of aurintricarboxylic acid (ATA) with full length V3 hypervariable loop peptides from gp120 of distinct HIV-1 isolates (clones). FIG. 4A: Inhibitory effects of ATA (50 μg/ml) on the reaction between peptide-coated wells and homologous anti-peptide antisera (diluted 1:1,000). FIG. 4B: attachment of ATA to distinct V3 hypervariable loop peptide-coated wells as determined by double antibody RIA using rabbit antiserum against ATA.
as §2

In series [5] the target is gp120 of the same virus subtype expressed in E. coli (HIV-1 M:B_ARV2/SF2, UniProt P03378). Nature of the series: Interaction of ATA with gp120 (non-glycosylated). The settings on record: data not shown. It is filed as binding, HIV-1 SF2.
Chain of gp120 of the same virus subtype expressed in E. coli (P03378 32-509): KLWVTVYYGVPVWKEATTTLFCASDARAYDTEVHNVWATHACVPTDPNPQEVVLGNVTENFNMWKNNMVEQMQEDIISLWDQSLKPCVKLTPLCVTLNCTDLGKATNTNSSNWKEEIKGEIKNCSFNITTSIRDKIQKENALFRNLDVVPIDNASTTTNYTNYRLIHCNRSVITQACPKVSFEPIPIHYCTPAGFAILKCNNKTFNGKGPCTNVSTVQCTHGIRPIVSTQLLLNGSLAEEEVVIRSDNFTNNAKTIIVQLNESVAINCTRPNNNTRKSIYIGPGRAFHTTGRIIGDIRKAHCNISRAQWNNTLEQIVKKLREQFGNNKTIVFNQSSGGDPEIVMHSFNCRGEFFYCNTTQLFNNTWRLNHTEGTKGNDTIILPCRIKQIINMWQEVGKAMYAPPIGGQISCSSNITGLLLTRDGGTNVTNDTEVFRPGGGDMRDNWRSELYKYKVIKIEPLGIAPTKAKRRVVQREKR
For series [6], the system named is HIV-1. Nature of the series: HIV-1 infection marker: viral DNA in ATA-treated cultures. It is filed as cell-based. From the text: (§3) The combined effects of AZT and ATA, and other compounds shown to be effective in Table 1, hereinbelow, against HIV-1 are also contemplated by the present invention, since synergistic drug combinations would offer means for alleviating toxicity due to AZT, observed in clinical settings. Contemplated combinations include, for example, AZT+ATA, AZT+chlorin e6; AZT+deuteroporphyrin IX, 2,4(4,2) hydroxyethyvinyl; and AZT+meso-tetra(4-carboxyphenyl)porphine.

Series [7] has as its system H9 cells. The experiment in a line: Toxicity for cells. The format is cell-based. The settings on record: at the concentrations used.
Text: as §3

Series [8] has as its system MT-2 cells. Nature of the series: Toxicity for cells. The settings on record: at the concentrations used. The format is cell-based.
Text: as §3

The test system of series [9] is U937 cells. The experiment in a line: Toxicity for cells. It is filed as cell-based. The settings on record: at the concentrations used.
Text: as §3

Series [10] deals with recombinant gp120 and recombinant CD4 (UniProt P01730+P03375). Nature of the series: Inhibition of the reaction between recombinant gp120 and recombinant CD4. Conditions: complete inhibition only at high concentrations; read-out: concentration for complete inhibition of the gp120-CD4 reaction. The format is binding. How it is done:
However, ATA is an inefficient inhibitor of the reaction between recombinant gp120 and recombinant CD4, and complete inhibition of this reaction can be observed only at high concentrations of ATA (≈1 mg/ml).

In series [11] the test system is CD4 receptor. The settings on record: literature; listed as ATA; cited from earlier work.
The test system of series [12] is HIV-1. The experiment in a line: Antiviral activity: inhibition of P24 production in MT-2 cells. The format is cell-based, HIV-1 IIIB. How it is done:
All chemicals were tested at serial two-fold dilutions (1.25-80 μg/ml, prepared from a stock solution containing 10 mg/ml in dimethylsulfoxide). The chemicals were obtained from Aldrich, Milwaukee, Wis. or were synthesized. Their inhibitory activity was determined by two distinct methods, based on inhibition of synthesis of core protein P24 and on protection by the chemicals of cells against the cytopathic effect of HIV-1 (colorimetric method) respectively.
The chemicals were serially diluted in RPMI 1640 medium without phenol red (GIBCO, Grand Island, N.Y.) containing 10% fetal calf serum (FCS). Aliquots of the diluted solutions were added to wells of 96 well plates and mixed with an equal volume of diluted HIV-1 [multiplicity of infection (MOI) =0.0045]. After incubation for 1 hour at 37° C., 25 μl of polybrene (1 μg/ml) treated MT-2 cells (Harada, S., Koyanagi, Y., Yamamoto, N., (1985), "Infection of HTLV-III/LAV in HTLV-I-carrying Cells MT-2 and MT-4 and Application in a Plaque Assay", Science, 229, 563-566), (5,000 cells/well) were added. The mixture was incubated for 1 hour at 37° C. and the volume was adjusted with RPMI 1640 medium with 10% FCS to 200 μl. On the fourth day after incubation at 37° C., 100 μl of culture supernatants were collected from each well and equal volumes of fresh medium were added to the wells. The supernatants were assayed for P24 using a kit from Coulter Immunology (Hialeah, Fla.). On the sixth day, an indicator XTT tetrazolium dye (1 mg/ml; 50 μl/well; PolySciences, Inc., Warrington, Penna.) was added to the cells. After 4 hours, intracellular formazan was determined colorimetrically at 450 nm.
^c Chemicals with inhibitory activity in ELISA (RIA) tests were teste
^d EC50 = concentration at which the production of P24 was […]

Turning to `O=C(O)C1=CC(=C(c2ccc(O)c(C(=O)O)c2)c2ccc(O)c(C(=O)O)c2)C=CC1=O` [substance #122, aurintricarboxylic acid], the “binding of ATA to peptide (anti-ATA antibodies)” value in series [1] is “most efficient binder of ATA”; in series [3], “bound to the peptide (492-518)”. Further, the “binding of ATA to gp120 (anti-ATA antibodies)” value in series [2] is given as “reacted with gp120; also recorded: remained bound to gp120 after removal of the excess of the compound”. Also, the “ATA binding to V3 peptide” value in series [4] was “bound the highest levels of ATA”. Besides, the “interaction of ATA with gp120” value in series [5] is recorded as “not with gp120 of the same virus subtype expressed in E. coli”. Moreover, the “viral DNA in treated cultures” value in series [6] was “almost undetectable”. For the same compound, the “toxicity for H9 cells” value in [7] is “lack of toxicity”. For the same compound, the “toxicity for MT-2 cells” value in series [8] is listed as “lack of toxicity”. For the same compound, the “toxicity for U937 cells” value in series [9] is given as “lack of toxicity”. Besides, in series [10], the IC100 was around 1000 µg/mL. Also, the “inhibition of the interaction with CD4 receptor” value in [11] is “inhibited the interaction of the CD4 receptor for HIV-1; also recorded: inhibiting the interaction between HIV-1 virions and cellular CD4 receptors”.

As for `C=Cc1c(C)c2cc3nc(c(CC(=O)O)c4[nH]c(cc5nc(cc1[nH]2)C(C)=C5CC)c(C)c4C(=O)O)[C@@H](CCC(=O)O)[C@@H]3C` [substance #149, chlorine e6], in series [12] (Human immunodeficiency virus 1, MT2, read-out: EC50 (concentration at which the production of P24 was reduced to 50% of that detected in control cultures)), the EC50 was found to be 0.8 µg/mL (≈ 1.34 µM). For the same compound, the inhibition (commonly the change of the read-out against control, counted positive when it falls) at 40 µg/mL in series [12] (Human immunodeficiency virus 1, MT2, read-out: percentage of inhibition of P24 nucleoprotein production) turned out to be 100%.
